Results as given in US20230151057A1, “LACTIC ACID BACTERIA GROWTH PROMOTER” (Asahi Group Holdings, Ltd., priority 2020, published 2023).
Ends that are not written are not given here.

How the values were obtained:
Type in all cases: cell-based
[1] = system: Lactobacillus amylovorus (FERM BP-11255); experiment: Growth-promoting effect on Lactobacillus amylovorus in modified MRS medium (particle count); conditions: Example 3, peptide 0.25 mg/mL, 37° C., 18 hours; for Rate of increase: control = 100%
Source text: Nitrogen sources in MRS medium were reduced to find a medium composition that achieves a total bacterial count of about 1.0×10^8 cell/mL to 1.0×10^9 cell/mL after culturing of each of the six bacterial strains Lactobacillus gasseri (FERNM BP-11331), Lactobacillus acidophilus (FERM BP-4981), Lactobacillus amylovorus (FERM BP-11255), Lactobacillus curvatus (NITE P-02033), Lactobacillus plantarum, and Lactobacillus brevis. This composition, named “modified MRS medium”, was used for the evaluation. Here, for the composition of the MRS medium, a composition described in a medium catalog provided by BD (Becton, Dickinson and Company) was used as a reference. The compositions of the MRS medium and the modified MRS medium are as follows. By chemical synthesis, 28 kinds of candidate peptides having the sequences shown below were provided. Each candidate peptide was added to the modified MRS medium at 0.25 mg/mL to provide a medium to be evaluated. The lactic acid bacterium Lactobacillus gasseri was inoculated at 1.0×10^7 cells/mL to the provided medium to be evaluated, and culture was carried out at a temperature of 37° C. for a culture period of 18 hours. The resulting culture was collected, and subjected to measurement of the particle concentration (particles/mL) as a characteristic value that can be used as an index of the bacterial cell growth, using a particle count analyzer (CDA-1000, Sysmex). The rate of increase (%) was calculated relative to a control value obtained using a medium to which no peptide was added, which was taken as 100%. For eight kinds of candidate peptides having the sequences shown below, the growth-promoting effect on a lactic acid bacterium was evaluated in the same manner as in Example 1 except that Lactobacillus amylovorus was used instead of Lactobacillus gasseri.

[2] = system: Lactobacillus acidophilus (FERM BP-4981); experiment: Growth-promoting effect on Lactobacillus acidophilus in modified MRS medium (particle count); conditions: Example 2, peptide 0.25 mg/mL, 37° C., 18 hours; for Rate of increase: control = 100%
Source text: Nitrogen sources in MRS medium were reduced to find a medium composition that achieves a total bacterial count of about 1.0×10^8 cell/mL to 1.0×10^9 cell/mL after culturing of each of the six bacterial strains Lactobacillus gasseri (FERNM BP-11331), Lactobacillus acidophilus (FERM BP-4981), Lactobacillus amylovorus (FERM BP-11255), Lactobacillus curvatus (NITE P-02033), Lactobacillus plantarum, and Lactobacillus brevis. This composition, named “modified MRS medium”, was used for the evaluation. Here, for the composition of the MRS medium, a composition described in a medium catalog provided by BD (Becton, Dickinson and Company) was used as a reference. The compositions of the MRS medium and the modified MRS medium are as follows. By chemical synthesis, 28 kinds of candidate peptides having the sequences shown below were provided. Each candidate peptide was added to the modified MRS medium at 0.25 mg/mL to provide a medium to be evaluated. The lactic acid bacterium Lactobacillus gasseri was inoculated at 1.0×10^7 cells/mL to the provided medium to be evaluated, and culture was carried out at a temperature of 37° C. for a culture period of 18 hours. The resulting culture was collected, and subjected to measurement of the particle concentration (particles/mL) as a characteristic value that can be used as an index of the bacterial cell growth, using a particle count analyzer (CDA-1000, Sysmex). The rate of increase (%) was calculated relative to a control value obtained using a medium to which no peptide was added, which was taken as 100%. For eight kinds of candidate peptides having the sequences shown below, the growth-promoting effect on a lactic acid bacterium was evaluated in the same manner as in Example 1 except that Lactobacillus acidophilus was used instead of Lactobacillus gasseri.

[3] = system: Lactobacillus curvatus (NITE P-02033); experiment: Growth-promoting effect on Lactobacillus curvatus in modified MRS medium (particle count); conditions: Example 4, peptide 0.25 mg/mL, 37° C., 18 hours; for Rate of increase: control = 100%
Source text: Nitrogen sources in MRS medium were reduced to find a medium composition that achieves a total bacterial count of about 1.0×10^8 cell/mL to 1.0×10^9 cell/mL after culturing of each of the six bacterial strains Lactobacillus gasseri (FERNM BP-11331), Lactobacillus acidophilus (FERM BP-4981), Lactobacillus amylovorus (FERM BP-11255), Lactobacillus curvatus (NITE P-02033), Lactobacillus plantarum, and Lactobacillus brevis. This composition, named “modified MRS medium”, was used for the evaluation. Here, for the composition of the MRS medium, a composition described in a medium catalog provided by BD (Becton, Dickinson and Company) was used as a reference. The compositions of the MRS medium and the modified MRS medium are as follows. By chemical synthesis, 28 kinds of candidate peptides having the sequences shown below were provided. Each candidate peptide was added to the modified MRS medium at 0.25 mg/mL to provide a medium to be evaluated. The lactic acid bacterium Lactobacillus gasseri was inoculated at 1.0×10^7 cells/mL to the provided medium to be evaluated, and culture was carried out at a temperature of 37° C. for a culture period of 18 hours. The resulting culture was collected, and subjected to measurement of the particle concentration (particles/mL) as a characteristic value that can be used as an index of the bacterial cell growth, using a particle count analyzer (CDA-1000, Sysmex). The rate of increase (%) was calculated relative to a control value obtained using a medium to which no peptide was added, which was taken as 100%. For eight kinds of candidate peptides having the sequences shown below, the growth-promoting effect on a lactic acid bacterium was evaluated in the same manner as in Example 1 except that Lactobacillus curvatus was used instead of Lactobacillus gasseri.

Substance	Particle concentration [1]	Rate of increase [1]	Particle concentration [2]	Rate of increase [2]	Particle concentration [3]	Rate of increase [3]
AGPQTF	1.93e+08 mL⁻¹	118%	1.02e+08 mL⁻¹	105%	1.58e+08 mL⁻¹	111%
APKPDYPIA (listed as Saccharomyces cerevisiae) [Ala-Pro-Lys-Pro-Asp-Tyr-Pro-Ile-Ala]	1.83e+08 mL⁻¹	112%	9.73e+07 mL⁻¹	100%	1.6e+08 mL⁻¹	112%
Leu-Phe [LF]	2.08e+08 mL⁻¹	109%	8.75e+07 mL⁻¹	121%	2.22e+08 mL⁻¹	124%
Leu-Pro-Trp-Gly (LPWG; listed as Saccharomyces cerevisiae)	2.13e+08 mL⁻¹	111%	1.03e+08 mL⁻¹	113%	1.97e+08 mL⁻¹	109%
Pro-Ser-Val-Phe (PSVF; listed as Saccharomyces cerevisiae)	1.92e+08 mL⁻¹	118%	1e+08 mL⁻¹	103%	1.68e+08 mL⁻¹	119%
Pro-Val-Phe [PVF]	2.07e+08 mL⁻¹	108%	1.01e+08 mL⁻¹	111%	1.71e+08 mL⁻¹	95%
Pro-Val-Tyr [PVY]	1.98e+08 mL⁻¹	121%	1.1e+08 mL⁻¹	113%	1.64e+08 mL⁻¹	116%
Val-Pro-Ala-Phe (VPAF; listed as Saccharomyces cerevisiae)	2.07e+08 mL⁻¹	108%	1.04e+08 mL⁻¹	113%	2.15e+08 mL⁻¹	117%
